Measurements as given in patent EP3033337B1, “SUBSTITUTED IMIDAZOLES AS N-TYPE CALCIUM CHANNEL BLOCKERS” (Janssen Pharmaceutica NV, priority 2013, dated 2015).
pIC50: −log10 of the molar value. Where two headings read alike, the source gives them in different places.

Legend:
[1] = target: T1, human N-type Ca channel (Homo sapiens, UniProt Q00975); assay: Calcium influx assay (FDSS), KCl depolarization, Fluo8 dye; format: cell-based; parameters: host or cells: HEK 293
Experimental: All cell culture reagents were procured from HyClone and other reagents were from Fisher. Recombinant HEK 293 cells expressing human N-type Ca channel (Millipore) were maintained in DMEM F12 containing 10% FBS and selection antibiotics at 37 °C in 5% CO2.
Cells were incubated at 30 °C in 5% CO2 overnight. The medium was removed and cells were loaded with Fluo8 dye (AAT Bioquest) at 37 °C and 30 °C, 30 min each in darkness. Cells were washed four times with wash buffer (16 mM Herep pH 7.2, 2 mM CaCl2, 1 mM MgCl2, 5 mM glucose, 140 mM choline chloride and 2 mM KCl) leaving 15 µL buffer after the last wash. Compounds of Formula (I), serially diluted, were added to the cell plate. The plates were incubated in darkness for 15 min. Cells were depolarized with 100 mM KCl and Ca influx was measured.

[2] = target: T1, human N-type Ca channel; assay: Electrophysiological response, QPatch (depolarization -80 mV to +20 mV)
Experimental: The recombinant cell line described above was used in the measurement of electrophysiological properties with QPatch (Sophion). Cells were maintained in culture as mentioned above. Prior to the experiment, the flasks were moved to 30 °C and incubated for 48-72 hrs. On the day of assaying, cells were detached and harvested. The cell pellet was re-suspended in SMF4HEK (HyClone)/25mM HEPS at 2-5 million/ mL and placed on the QStirrer of the QPatch for 30-60 min prior to the start of the assay. […] Microtiter-Plate/Reference Buffer contained 140 mM TEA-Cl, 10mM BaCl2, 0.8 mM MgCl2, 10 mM HEPES pH ∼7.4 adjusted with TEA-OH/HCl, and ∼300mOsm. Cells were transferred to a QPatch 48 plate and gigaseal was formed. The plate was perfused with intracellular and extracellular buffer. […] In brief, cells were depolarized from resting potential of -80 mV to +20 mV and current was recorded. Data was plotted as percent inhibition vs concentration of the compound and IC50 values were generated using Graphpad Prism non-linear regression analysis.

[3] = HEK 293 cells expressing human N-type Ca channel, 100 mM KCl, read-out: N Type IC50 Data FDSS
[4] = read-out: N Type IC50 Data Qpatch Pulse=15, Pulse=15, concentration range 0.01-1 µM
[5] = read-out: Qpatch Pulse=1 (percent inhibition)
[6] = N Type IC50 Data Qpatch Pulse=1, Pulse=1, concentration range 0.3-10 µM
[7] = N Type IC50 Data Qpatch Pulse=15, Pulse=15, concentration range 0.3-10 µM
[8] = read-out: Qpatch Pulse=15 (percent inhibition)
[9] = N Type IC50 Data Qpatch Pulse=15, Pulse=15, concentration range 0.01-1 µM
[10] = Pulse=1, concentration range 0.01-1 µM
[11] = Pulse=15, concentration range 0.01-1 µM
[12] = N Type IC50 Data Qpatch Pulse=1, Pulse=1, concentration range 0.01-1 µM
[13] = Pulse=15, concentration range 0.01-0.3 µM

T1 sequence (Q00975 whole entry): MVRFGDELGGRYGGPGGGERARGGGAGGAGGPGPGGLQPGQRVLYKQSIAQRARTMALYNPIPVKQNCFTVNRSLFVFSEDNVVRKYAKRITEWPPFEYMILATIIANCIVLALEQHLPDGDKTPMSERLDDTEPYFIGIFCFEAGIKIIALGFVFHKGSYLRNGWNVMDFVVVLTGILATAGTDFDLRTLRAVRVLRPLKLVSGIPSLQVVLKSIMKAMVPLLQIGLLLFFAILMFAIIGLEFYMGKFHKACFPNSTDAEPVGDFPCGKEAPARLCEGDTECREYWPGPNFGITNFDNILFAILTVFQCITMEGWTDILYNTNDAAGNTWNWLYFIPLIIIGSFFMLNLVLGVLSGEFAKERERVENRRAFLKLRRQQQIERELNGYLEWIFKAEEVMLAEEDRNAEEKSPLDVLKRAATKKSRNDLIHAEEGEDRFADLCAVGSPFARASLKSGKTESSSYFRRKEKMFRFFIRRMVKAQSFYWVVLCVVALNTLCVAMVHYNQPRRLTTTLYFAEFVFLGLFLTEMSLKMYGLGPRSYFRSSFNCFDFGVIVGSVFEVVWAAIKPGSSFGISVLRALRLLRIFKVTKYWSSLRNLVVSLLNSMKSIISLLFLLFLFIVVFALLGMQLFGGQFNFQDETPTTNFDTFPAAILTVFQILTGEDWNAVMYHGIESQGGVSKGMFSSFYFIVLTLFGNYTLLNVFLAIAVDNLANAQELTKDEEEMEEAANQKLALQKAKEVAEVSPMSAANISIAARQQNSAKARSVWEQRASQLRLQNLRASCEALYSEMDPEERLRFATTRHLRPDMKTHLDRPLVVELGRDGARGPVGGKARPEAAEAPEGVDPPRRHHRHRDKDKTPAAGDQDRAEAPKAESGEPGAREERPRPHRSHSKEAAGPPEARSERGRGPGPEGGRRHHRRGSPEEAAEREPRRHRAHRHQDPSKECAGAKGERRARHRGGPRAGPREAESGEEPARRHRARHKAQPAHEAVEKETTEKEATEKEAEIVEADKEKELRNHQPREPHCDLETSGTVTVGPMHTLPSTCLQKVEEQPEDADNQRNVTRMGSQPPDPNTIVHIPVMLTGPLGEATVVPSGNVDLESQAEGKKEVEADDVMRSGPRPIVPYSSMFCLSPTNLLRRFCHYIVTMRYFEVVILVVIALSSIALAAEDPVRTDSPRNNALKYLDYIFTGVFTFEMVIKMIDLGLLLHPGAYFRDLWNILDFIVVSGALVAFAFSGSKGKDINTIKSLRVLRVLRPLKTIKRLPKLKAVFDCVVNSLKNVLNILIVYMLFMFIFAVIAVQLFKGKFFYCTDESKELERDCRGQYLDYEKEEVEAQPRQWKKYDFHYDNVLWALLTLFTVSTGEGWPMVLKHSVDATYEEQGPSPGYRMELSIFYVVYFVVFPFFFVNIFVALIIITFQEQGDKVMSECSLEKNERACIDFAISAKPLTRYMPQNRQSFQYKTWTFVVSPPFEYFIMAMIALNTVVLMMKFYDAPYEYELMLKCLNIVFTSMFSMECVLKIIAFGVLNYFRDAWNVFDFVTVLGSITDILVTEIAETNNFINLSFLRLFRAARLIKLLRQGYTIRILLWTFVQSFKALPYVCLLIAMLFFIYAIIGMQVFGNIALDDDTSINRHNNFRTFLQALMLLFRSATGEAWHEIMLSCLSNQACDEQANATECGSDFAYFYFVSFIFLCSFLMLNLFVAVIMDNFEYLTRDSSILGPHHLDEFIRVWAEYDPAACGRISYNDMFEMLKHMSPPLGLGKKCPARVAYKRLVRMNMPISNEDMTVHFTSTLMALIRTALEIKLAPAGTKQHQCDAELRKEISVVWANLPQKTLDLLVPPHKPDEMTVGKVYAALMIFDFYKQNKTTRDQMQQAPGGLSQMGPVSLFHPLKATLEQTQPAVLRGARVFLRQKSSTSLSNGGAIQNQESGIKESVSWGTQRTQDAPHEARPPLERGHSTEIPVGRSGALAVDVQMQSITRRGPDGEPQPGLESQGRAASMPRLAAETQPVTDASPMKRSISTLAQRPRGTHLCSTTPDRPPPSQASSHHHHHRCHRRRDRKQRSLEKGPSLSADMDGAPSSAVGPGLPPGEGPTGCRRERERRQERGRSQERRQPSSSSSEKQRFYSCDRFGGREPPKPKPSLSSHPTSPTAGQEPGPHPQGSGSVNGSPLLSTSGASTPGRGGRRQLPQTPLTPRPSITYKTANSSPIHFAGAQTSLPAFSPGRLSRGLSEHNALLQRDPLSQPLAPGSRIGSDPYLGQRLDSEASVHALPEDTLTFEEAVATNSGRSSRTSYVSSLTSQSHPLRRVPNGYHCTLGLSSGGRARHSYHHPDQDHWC
T1 sequence (P54284 whole entry partner): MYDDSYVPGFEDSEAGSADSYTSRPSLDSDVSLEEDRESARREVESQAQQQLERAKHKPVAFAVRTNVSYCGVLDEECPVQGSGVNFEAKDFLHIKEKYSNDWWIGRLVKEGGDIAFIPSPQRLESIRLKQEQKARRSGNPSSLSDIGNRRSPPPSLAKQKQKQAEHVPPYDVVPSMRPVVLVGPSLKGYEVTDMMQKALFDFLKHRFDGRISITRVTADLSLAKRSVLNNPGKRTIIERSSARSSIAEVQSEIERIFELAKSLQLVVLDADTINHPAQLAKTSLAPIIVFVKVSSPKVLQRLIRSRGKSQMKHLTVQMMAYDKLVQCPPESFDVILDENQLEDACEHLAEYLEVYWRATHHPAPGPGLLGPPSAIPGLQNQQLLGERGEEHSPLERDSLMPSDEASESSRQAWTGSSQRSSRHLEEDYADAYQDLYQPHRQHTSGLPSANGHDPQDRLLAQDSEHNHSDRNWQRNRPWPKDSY
T1 sequence (P54289 25-956 partner limits assumed): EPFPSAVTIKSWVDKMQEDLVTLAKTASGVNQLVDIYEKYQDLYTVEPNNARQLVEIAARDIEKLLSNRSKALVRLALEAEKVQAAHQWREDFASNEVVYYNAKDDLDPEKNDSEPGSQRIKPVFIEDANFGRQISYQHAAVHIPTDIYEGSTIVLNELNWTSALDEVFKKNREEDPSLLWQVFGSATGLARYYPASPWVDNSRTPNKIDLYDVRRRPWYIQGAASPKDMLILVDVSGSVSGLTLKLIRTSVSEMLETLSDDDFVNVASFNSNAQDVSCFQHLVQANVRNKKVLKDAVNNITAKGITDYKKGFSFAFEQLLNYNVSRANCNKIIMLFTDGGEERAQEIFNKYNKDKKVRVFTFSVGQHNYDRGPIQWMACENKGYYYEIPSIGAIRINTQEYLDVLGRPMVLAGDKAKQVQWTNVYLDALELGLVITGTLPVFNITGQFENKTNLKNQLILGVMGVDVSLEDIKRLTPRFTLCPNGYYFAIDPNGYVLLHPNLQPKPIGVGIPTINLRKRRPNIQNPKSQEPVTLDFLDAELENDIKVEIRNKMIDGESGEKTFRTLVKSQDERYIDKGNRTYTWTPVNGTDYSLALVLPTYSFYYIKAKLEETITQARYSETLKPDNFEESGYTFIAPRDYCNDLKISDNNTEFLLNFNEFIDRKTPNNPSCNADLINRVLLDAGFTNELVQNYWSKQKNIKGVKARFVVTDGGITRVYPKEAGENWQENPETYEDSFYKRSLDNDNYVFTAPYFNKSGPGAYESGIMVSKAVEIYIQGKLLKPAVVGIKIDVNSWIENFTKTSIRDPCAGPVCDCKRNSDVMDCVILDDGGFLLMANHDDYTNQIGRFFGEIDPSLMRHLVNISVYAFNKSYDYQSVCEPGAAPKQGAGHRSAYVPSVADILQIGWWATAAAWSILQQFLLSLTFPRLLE
T1 sequence (P54289 957-1103 partner limits assumed): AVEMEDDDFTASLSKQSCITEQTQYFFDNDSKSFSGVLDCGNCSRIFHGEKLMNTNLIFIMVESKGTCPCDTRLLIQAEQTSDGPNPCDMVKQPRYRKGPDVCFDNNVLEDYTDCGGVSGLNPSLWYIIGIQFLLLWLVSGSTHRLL

SMILES | pIC50 [1, 3] | pIC50 [2, 6] | pIC50 [2, 7] | further results
COc1cccnc1-c1nc(C2CC(C)(C)OC(C)(C)C2)cn1-c1ccc(F)cc1 [Compound 70, 2-(1-(4-fluorophenyl)-4-(2,2,6,6-tetramethyltetrahydro-2H-pyran-4-yl)-1H-imidazol-2-yl)-3-methoxypyridine] | 6.06 |  |  | inhibition at 10 µM [2, 5]: 41%
COc1cnccc1-c1nc(C2(O)CC(C)(C)OC(C)(C)C2)cn1-c1ccc(Cl)cc1 [Compound 120, 4-(1-(4-chlorophenyl)-2-(3-methoxypyridin-4-yl)-1H-imidazol-4-yl)-2,2,6,6-tetramethyltetrahydro-2H-pyran-4-ol] | 6.97 | 5.80 | 5.04 | 
COc1ncccc1-c1nc(C2CC(C)(C)OC(C)(C)C2)c(Cl)n1-c1ccc(Cl)cc1 [Compound 93, 3-(5-chloro-1-(4-chlorophenyl)-4-(2,2,6,6-tetramethyltetrahydro-2H-pyran-4-yl)-1H-imidazol-2-yl)-2-methoxypyridine] |  | 5.19 | 5.74 | pIC50 [1]: 6.82
COc1ccccc1-c1nc(C2CC(C)(C)OC(C)(C)C2)cn1S(=O)(=O)c1ccc(F)cc1 [Compound 98, 1-((4-fluorophenyl)sulfonyl)-2-(2-methoxyphenyl)-4-(2,2,6,6-tetramethyltetrahydro-2H-pyran-4-yl)-1H-imidazol,] | 6.16 | 5.04 | 5.44 | 
COc1ccncc1-c1nc(C2(O)CC(C)(C)OC(C)(C)C2)cn1-c1ccc(Cl)cc1 [Compound 103, 4-(1-(4-chlorophenyl)-2-(4-methoxypyridin-3-yl)-1H-imidazol-4-yl)-2,2,6,6-tetramethyltetrahydro-2H-pyran-4-ol] | 6.44 | 5.37 |  | inhibition at 10 µM [2, 8]: 31%
CC1(C)CC(c2cn(-c3ccc(Cl)cc3)c(CC3CC3)n2)CC(C)(C)O1 [Compound 55, 1-(4-chlorophenyl)-2-(cyclopropylmethyl)-4-(2,2,6,6-tetramethyltetrahydro-2H-pyran-4-yl)-1H-imidazole] | 6.42 |  |  | pIC50 [2, 9]: 6.11
COc1ccccc1-c1nc(C2=CC(C)(C)OC(C)(C)C2)cn1-c1ccc(Br)c(F)c1 [Compound 125, 1-(4-bromo-3-fluorophenyl)-2-(2-methoxyphenyl)-4-(2,2,6,6-tetramethyl-3,6-dihydro-2H-pyran-4-yl)-1H-imidazole] | 6.50 | 5.68 | 5.64 | 
COc1ccccc1-c1nc(C2CC(C)(C)OC(C)(C)C2)cn1-c1ccc(Cl)cn1 [Compound 39, 5-chloro-2-(2-(2-methoxyphenyl)-4-(2,2,6,6-tetramethyltetrahydro-2H-pyran-4-yl)-1H-imidazol-1-yl)pyridine] | 6.79 | 5.77 | 5.72 | 
COc1ncncc1-c1nc(C2CC(C)(C)OC(C)(C)C2)cn1-c1ccc(Cl)cc1 [Compound 49, 5-(1-(4-chlorophenyl)-4-(2,2,6,6-tetramethyltetrahydro-2H-pyran-4-yl)-1H-imidazol-2-yl)-4-methoxypyrimidine] | 6.91 |  |  | pIC50 [2, 12]: < 6.00; pIC50 [2, 4]: < 6.00
CC1(C)CC(c2cn(-c3ccc(Cl)cc3)c(C3CC3)n2)CC(C)(C)O1 [Compound 56, 1-(4-chlorophenyl)-2-cyclopropyl-4-(2,2,6,6-tetramethyltetrahydro-2H-pyran-4-yl)-1H-imidazole] | 5.78 |  |  | pIC50 ([2]; read-out: N Type IC50 Data Qpatch Pulse=1, Pulse=1, concentration range 0.01-1 µM): < 6.00; pIC50 [2, 4]: < 6.00
CCOc1ccc(-n2cc(C3CC(C)(C)OC(C)(C)C3)nc2-c2ccncc2OC)cc1 [Compound 3, 4-(1-(4-ethoxyphenyl)-4-(2,2,6,6-tetramethyltetrahydro-2H-pyran-4-yl)-1H-imidazol-2-yl)-3-methoxypyridine] | 6.42 |  |  | pIC50 [2, 12]: 6.08; pIC50 [2, 4]: < 6.00
COc1ncccc1-c1nc(C2(O)CC(C)(C)OC(C)(C)C2)cn1-c1ccc(F)c(Cl)c1 [Compound 110, 4-(1-(3-chloro-4-fluorophenyl)-2-(2-methoxypyridin-3-yl)-1H-imidazol-4-yl)-2,2,6,6-tetramethyltetrahydro-2H-pyran-4-ol] | 6.41 |  |  | inhibition at 10 µM [2, 5]: 44%; inhibition at 10 µM [2, 8]: 30%
COc1ccccc1-c1nc(C2(O)CC(C)(C)OC(C)(C)C2)cn1-c1ccc(F)c(Cl)c1 [Compound 111, 4-(1-(3-chloro-4-fluorophenyl)-2-(2-methoxyphenyl)-1H-imidazol-4-yl)-2,2,6,6-tetramethyltetrahydro-2H-pyran-4-ol] | 6.59 |  | 5.60 | inhibition at 10 µM [2, 5]: 62%
COc1ccncc1-c1nc(C2CC(C)(C)OC(C)(C)C2)cn1-c1ccc(F)c(Cl)c1 [Compound 20, 3-(1-(3-chloro-4-fluorophenyl)-4-(2,2,6,6-tetramethyltetrahydro-2H-pyran-4-yl)-1H-imidazol-2-yl)-4-methoxypyridine] | 5.97 |  |  | pIC50 [2, 12]: < 6.00; pIC50 [2, 4]: < 6.00
COc1ccccc1-c1nc(C2(O)CC(C)(C)OC(C)(C)C2)cn1-c1ccc(Cl)c(F)c1 [Compound 112, 4-(1-(4-chloro-3-fluorophenyl)-2-(2-methoxyphenyl)-1H-imidazol-4-yl)-2,2,6,6-tetramethyltetrahydro-2H-pyran-4-ol] | 7.39 | 5.60 | 5.52 | 
COc1ccccc1-c1nc(C2CC(C)(C)OC(C)(C)C2)cn1-c1c(F)cc(C#N)cc1F [Compound 83, 3,5-difluoro-4-(2-(2-methoxyphenyl)-4-(2,2,6,6-tetramethyltetrahydro-2H-pyran-4-yl)-1H-imidazol-1-yl)benzonitrile] |  |  |  | pIC50 [1]: 7.31; N Type IC50 Data Qpatch Pulse=1 ([2]; Pulse=1, concentration range 0.01-0.3 µM): poor fit(0.01-0.3 µM); N Type IC50 Data Qpatch Pulse=15 [2, 13]: poor fit(0.01-0.3 µM)

Second part, led by results:

pIC50 [1, 3] | pIC50 [2, 6] | pIC50 [2, 7] | SMILES | further results
5.15 |  |  | COc1cc(-n2cc(C3CC(C)(C)OC(C)(C)C3)nc2-c2cccnc2OC)ccc1F [Compound 24, 3-(1-(4-fluoro-3-methoxyphenyl)-4-(2,2,6,6-tetramethyltetrahydro-2H-pyran-4-yl)-1H-imidazol-2-yl)-2-methoxypyridine] | pIC50 [2, 4]: < 6.00
5.69 | 5.01 | 5.38 | CCOc1ccc(-n2cc(C3CC(C)(C)OC(C)(C)C3)nc2-c2cccnc2OC)cn1 [Compound 75, 3-(1-(6-ethoxypyridin-3-yl)-4-(2,2,6,6-tetramethyltetrahydro-2H-pyran-4-yl)-1H-imidazol-2-yl)-2-methoxypyridine] | 
5.09 |  |  | COc1ncccc1-c1nc(C2CC(C)(C)OC(C)(C)C2)cn1-c1cc(F)cc(C#N)c1 [Compound 73, 3-fluoro-5-(2-(2-methoxypyridin-3-yl)-4-(2,2,6,6-tetramethyltetrahydro-2H-pyran-4-yl)-1H-imidazol-1-yl)benzonitrile] | N Type IC50 Data Qpatch Pulse=1 [2, 10]: poor fit(0.01- 1 µM); N Type IC50 Data Qpatch Pulse=15 [2, 11]: poor fit(0.01- 1 µM)
5.71 |  |  | COc1ncccc1-c1nc(C2CC(C)(C)OC(C)(C)C2)cn1-c1ccc(C(F)(F)F)nc1 [Compound 54, 2-methoxy-3-(4-(2,2,6,6-tetramethyltetrahydro-2H-pyran-4-yl)-1-(6-(trifluoromethyl)pyridin-3-yl)-1H-imidazol-2-yl)pyridine] | pIC50 [2, 12]: 6.52; pIC50 [2, 9]: 6.63; N Type IC50 Data Qpatch Pulse=1 [2, 10]: Poor fit; N Type IC50 Data Qpatch Pulse=15 [2, 11]: Poor fit
6.94 |  |  | CCOc1ncccc1-c1nc(C2CC(C)(C)OC(C)(C)C2)cn1-c1ccc(F)c(F)c1 [Compound 52, 3-(1-(3,4-difluorophenyl)-4-(2,2,6,6-tetramethyltetrahydro-2H-pyran-4-yl)-1H-imidazol-2-yl)-2-ethoxypyridine] | pIC50 [2, 12]: 6.14; pIC50 [2, 4]: < 6.00
6.11 |  |  | COc1ncccc1-c1nc(C2CC(C)(C)OC(C)(C)C2)cn1-c1cccc(F)c1F [Compound 31, 3-(1-(2,3-difluorophenyl)-4-(2,2,6,6-tetramethyltetrahydro-2H-pyran-4-yl)-1H-imidazol-2-yl)-2-methoxypyridine] | pIC50 ([2]; N Type IC50 Data Qpatch Pulse=1, Pulse=1, concentration range 0.01-0.3 µM): 5.80; N Type IC50 Data Qpatch Pulse=15 [2, 13]: poor fit(0.01-0.3 ,u.M)
5.00 |  |  | COc1cc(-n2cc(C3CC(C)(C)OC(C)(C)C3)nc2-c2cccnc2OC)ccc1C#N [Compound 77, 2-methoxy-4-(2-(2-methoxypyridin-3-yl)-4-(2,2,6,6-tetramethyltetrahydro-2H-pyran-4-yl)-1H-imidazol-1-yl)benzonitrile] | pIC50 [2, 12]: < 6.00; pIC50 [2, 4]: < 6.00
6.48 |  |  | COc1ncccc1-c1nc(C2CC(C)(C)OC(C)(C)C2)cn1-c1ccc(C#N)c(F)c1 [Compound 80, 2-fluoro-4-(2-(2-methoxypyridin-3-yl)-4-(2,2,6,6-tetramethyltetrahydro-2H-pyran-4-yl)-1H-imidazol-1-yl)benzonitrile] | inhibition at 10 µM [2, 8]: 28%
6.71 | 5.59 | 5.97 | COc1ccccc1-c1nc(C2CC(C)(C)OC(C)(C)C2)cn1-c1ccc(F)c(F)c1 [Compound 42, 1-(31,4-difluorophenyl)-2-(2-methoxyphenyl)-4-(2,2,6,6-tetramethyltetrahydro-2H-pyran-4-yl)-1H-imidazole] | 
